Reference: patent US10336762B2 (priority 2017, dated 2019)
Like-named read-outs stand apart in the source and are kept apart here.

Tests used:
[1] = test system: TNFα; assay: cells; type: cell-based, human; conditions: LPS-stimulated human monocytes, read-out: EC50 TNF
[2] = biological target: IRAK4 enzyme (Homo sapiens (Human), UniProt Q9NWZ3); assay: biochemical; type: biochemical; conditions: IRAK4 enzyme, 500 μM ATP
[3] = Homo sapiens, Monocyte, TNFα by TR-FRET
[4] = Homo sapiens, Monocyte, TNFα content

IRAK4 enzyme, sequence (Q9NWZ3 whole entry): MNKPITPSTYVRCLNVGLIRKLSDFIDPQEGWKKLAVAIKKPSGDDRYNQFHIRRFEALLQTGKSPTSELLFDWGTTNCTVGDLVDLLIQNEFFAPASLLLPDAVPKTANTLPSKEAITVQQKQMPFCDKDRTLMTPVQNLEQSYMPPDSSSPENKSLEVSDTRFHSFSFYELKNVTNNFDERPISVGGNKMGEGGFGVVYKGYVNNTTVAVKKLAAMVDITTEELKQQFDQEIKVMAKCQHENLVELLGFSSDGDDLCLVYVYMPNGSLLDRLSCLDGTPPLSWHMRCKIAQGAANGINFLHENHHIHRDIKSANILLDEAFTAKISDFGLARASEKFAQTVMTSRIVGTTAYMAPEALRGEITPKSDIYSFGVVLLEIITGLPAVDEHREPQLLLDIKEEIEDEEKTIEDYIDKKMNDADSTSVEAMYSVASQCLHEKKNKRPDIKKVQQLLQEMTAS

| SMILES | EC50 [1, 3] [nM] | IC50 ([2]; TR-FRET) [nM] | EC50 [1, 4] [nM] | IC50 ([2]; TR-FRET (HTRF)) [nM] | EC50 ([1]; TNFα content) [nM] |
| --- | --- | --- | --- | --- | --- |
| CNC(=O)CCNC(=O)c1cnc(-c2ccc3cc(C#N)cnn23)cc1NC12CCC(O)(CC1)CC2 [Example 803, 6-(3-cyanopyrrolo[1,2-b]pyridazin-7-yl)-4-((4-hydroxybicyclo[2.2.2]octan-1-yl)amino)-N-(3-(methylamino)-3-oxopropyl)nicotinamide] | 327 | 1 |  |  |  |
| CC(C)Nc1cc(-c2ccc3cc(C#N)cnn23)ncc1C(=O)NCC#N [Example 462, N-(cyanomethyl)-6-(3-cyanopyrrolo[1,2-b]pyridazin-7-yl)-4-(isopropylamino) nicotinamide] |  |  | 67 | < 1 |  |
| CC(C)(O)[C@H](F)CNC(=O)c1cnc(-c2ccc3cc(C#N)cnn23)cc1N[C@H]1CC[C@H](c2nnco2)CC1 [Example 637, 4-(((1r,4R)-4-(1,3,4-oxadiazol-2-yl)cyclohexyl)amino)-6-(3-cyano-pyrrolo[1,2-b]pyridazin-7-yl)-N-((R)-2-fluoro-3-hydroxy-3-methylbutyl) nicotinamide] |  |  | 21 | < 1 |  |
| COC(=O)NC1CC2(C1)CC(Nc1cc(-c3ccc4cc(C#N)cnn34)ncc1C(=O)NC[C@@H](F)C(C)(C)O)C2 (stereo partly drawn) [Example 754, (R)-methyl (6-((2-(3-cyanopyrrolo[1,2-b]pyridazin-7-yl)-5-((2-fluoro-3-hydroxy-3-methylbutyl)carbamoyl)pyridin-4-yl)amino)spiro[3.3]heptan-2-yl)carbamate] |  |  | 20 | < 1 |  |
| COC(=O)N1CC[C@H](CNC(=O)c2cnc(-c3ccc4cc(C#N)cnn34)cc2NC23CCC(O)(CC2)CC3)C1 [Example 741, (R)-methyl 3-((6-(3-cyano-pyrrolo[1,2-b]pyridazin-7-yl)-4-((4-hydroxybicyclo[2.2.2]octan-1-yl)amino)nicotin-amido)methyl)pyrrolidine-1-carboxylate] |  |  | 124 | < 1 |  |
| CC(C)Nc1cc(-c2ccc3cc(C#N)cnn23)ncc1C(=O)NC1CCS(=O)(=O)CC1 [Example 139, 6-(3-cyanopyrrolo[1,2-b]pyridazin-7-yl)-N-(1,1-dioxidotetrahydro-2H-thiopyran-4-yl)-4-(isopropylamino) nicotinamide] |  | 19 | 254 |  |  |
| CC(C)(O)[C@H](F)CNC(=O)c1cnc(-c2ccc3cc(C#N)cnn23)cc1Nc1ccc(-n2cccn2)cc1 [Example 769, (R)-4-((4-(1H-pyrazol-1-yl)phenyl)amino)-6-(3-cyanopyrrolo[1,2-b]pyridazin-7-yl)-N-(2-fluoro-3-hydroxy-3-methylbutyl)nicotinamide] |  |  | 44 | < 1 |  |
| CC(C)(O)[C@H](F)CNC(=O)c1cnc(-c2ccc3cc(C#N)cnn23)cc1N[C@H]1CC[C@H](NC(=O)C2CC2)CC1 [Example 297, 6-(3-cyanopyrrolo[1,2-b]pyridazin-7-yl)-4-(((1r,4R)-4-(cyclopropanecarbox-amido)cyclohexyl)amino)-N-((R)-2-fluoro-3-hydroxy-3-methylbutyl) nicotinamide] |  | 1 | 80 |  |  |
| CNC(=O)C1CCC(NC(=O)c2cnc(-c3ccc4cc(C#N)cnn34)cc2NC(C)C)CC1 (stereo not shown) [Example 22, 6-(3-cyanopyrrolo[1,2-b]pyridazin-7-yl)-4-(isopropyl-amino)-N-((1r,4r)-4-(methylcarbamoyl)cyclohexyl) nicotinamide] |  | < 1 | 87 |  |  |
| COC(=O)N1CCOC[C@H]1CNc1cc(-c2ccc3cc(C#N)cnn23)ncc1C(=O)NC[C@@H](F)C(C)(C)O [Example 918, (R)-methyl 3-(((2-(3-cyano-pyrrolo[1,2-b]pyridazin-7-yl)-5-(((R)-2-fluoro-3-hydroxy-3-methylbutyl)carbamoyl)pyridin-4-yl)amino)methyl)morpholine-4-carboxylate] | 416 | 31 |  |  |  |
| CCOc1cnc(Nc2cc(-c3ccc4cc(C#N)cnn34)ncc2C(=O)NC[C@@H](F)C(C)(C)O)cn1 [Example 841, (R)-6-(3-cyanopyrrolo[1,2-b]pyridazin-7-yl)-4-((5-ethoxypyrazin-2-yl)amino)-N-(2-fluoro-3-hydroxy-3-methylbutyl)nicotinamide] | 29 | < 1 |  |  |  |
| CC(C)(O)[C@H](F)CNC(=O)c1cnc(-c2ccc3cc(C#N)cnn23)cc1NC1CC2CCC(C1)N2S(C)(=O)=O (stereo partly drawn) [Example 15, 6-(3-cyanopyrrolo[1,2-b]pyridazin-7-yl)-N-((R)-2-fluoro-3-hydroxy-3-methylbutyl)-4-(((1R,3r,5S)-8-(methylsulfonyl)-8-azabicyclo[3.2.1]octan-3-yl)amino)nicotinamide] |  | 4 |  |  | 302 |
| CC(C)(O)[C@H](F)CNC(=O)c1cnc(-c2ccc3cc(C#N)cnn23)cc1Nc1ccnc(F)c1 [Example 591, (R)-6-(3-cyanopyrrolo[1,2-b]pyridazin-7-yl)-N-(2-fluoro-3-hydroxy-3-methylbutyl)-4-((2-fluoro-pyridin-4-yl)amino) nicotinamide] |  |  | 180 | 2 |  |
| CNC(=O)c1cnc(-c2ccc3cc(C#N)cnn23)cc1N[C@@H]1CC[C@@H](C(=O)NC)C1 [Example 466, 6-(3-cyanopyrrolo[1,2-b]pyridazin-7-yl)-N-methyl-4-(((1R,3R)-3-(methyl-carbamoyl)cyclopentyl)amino)nicotinamide] |  |  | 259 | 8 |  |
| CC(C)(O)[C@H](F)CNC(=O)c1cnc(-c2ccc3cc(C#N)cnn23)cc1NC1C2CC1CN(S(C)(=O)=O)C2 (stereo partly drawn) [Example 30, 6-(3-cyanopyrrolo[1,2-b]pyridazin-7-yl)-N-((R)-2-fluoro-3-hydroxy-3-methyl-butyl)-4-((3-(methylsulfonyl)-3-azabicyclo[3.1.1]heptan-6-yl)amino)nicotinamide] |  | 3 | 732 |  |  |
| CNC(=O)c1cnc(-c2ccc3cc(C#N)cnn23)cc1NC12CCC(C(=O)N3CCC3)(CC1)CC2 [Example 484, 4-((4-(azetidine-1-carbonyl)bicyclo[2.2.2]octan-1-yl)amino)-6-(3-cyanopyrrolo[1,2-b]pyridazin-7-yl)-N-methyl-nicotinamide] |  |  | 63 | 1 |  |
| CC(C)(O)[C@H](F)CNC(=O)c1cnc(-c2ccc3cc(C#N)cnn23)cc1NC1CCCC(F)C1 (stereo partly drawn) [Example 509, 6-(3-cyanopyrrolo[1,2-b]pyridazin-7-yl)-N-((R)-2-fluoro-3-hydroxy-3-methylbutyl)-4-(((1S)-3-fluorocyclohexyl)amino) nicotinamide] |  |  | 66 | < 1 |  |
| CC(C)(O)[C@H](F)CNC(=O)c1cnc(-c2ccc3cc(C#N)cnn23)cc1NC1CC2(CCNC2)C1 (stereo partly drawn) [Example 902, (R)-4-(6-azaspiro[3.4]octan-2-ylamino)-6-(3-cyanopyrrolo[1,2-b]pyridazin-7-yl)-N-(2-fluoro-3-hydroxy-3-methyl-butyl)nicotinamide] | 1230 | 1 |  |  |  |
| N#Cc1cnn2c(-c3cc(NC45CCC(O)(CC4)CC5)c(C(=O)NCCN4CCCC4=O)cn3)ccc2c1 [Example 809, 6-(3-cyanopyrrolo[1,2-b]pyridazin-7-yl)-4-((4-hydroxybicyclo[2.2.2]octan-1-yl)amino)-N-(2-(2-oxopyrrolidin-1-yl)ethyl)nicotinamide] | 166 | 1 |  |  |  |
| Cc1ccc(-c2cc(Nc3cc(-c4ccc5cc(C#N)cnn45)ncc3C(=O)NC[C@@H](F)C(C)(C)O)n(-c3ccccc3)n2)cc1 [Example 364, (R)-6-(3-cyanopyrrolo[1,2-b]pyridazin-7-yl)-N-(2-fluoro-3-hydroxy-3-methylbutyl)-4-((1-phenyl-3-(p-tolyl)-1H-pyrazol-5-yl)amino)nicotinamide] |  | 1000 | > 10000 |  |  |
| CC1(Nc2cc(-c3ccc4cc(C#N)cnn34)ncc2C(=O)NCC#N)COC1 [Example 612, N-(cyanomethyl)-6-(3-cyanopyrrolo[1,2-b]pyridazin-7-yl)-4-((3-methyloxetan-3-yl)amino)nicotinamide] |  |  | 51 | < 1 |  |
| COCC1CCC1CNc1cc(-c2ccc3cc(C#N)cnn23)ncc1C(=O)NC[C@@H](F)C(C)(C)O (stereo partly drawn) [Example 713, 6-(3-cyanopyrrolo[1,2-b]pyridazin-7-yl)-N-((R)-2-fluoro-3-hydroxy-3-methyl-butyl)-4-(((2-(methoxy-methyl)cyclobutyl)methyl)amino)nicotinamide] |  |  | 264 | 2 |  |
| CC(C)(O)[C@H](F)CNC(=O)c1cnc(-c2ccc3cc(C#N)cnn23)cc1Nc1cnn2c1CCCC2 [Example 129, (R)-6-(3-cyanopyrrolo[1,2-b]pyridazin-7-yl)-N-(2-fluoro-3-hydroxy-3-methylbutyl)-4-((4,5,6,7-tetrahydropyrazolo[1,5-a]pyridin-3-yl)amino)nicotinamide] |  | 6 | 377 |  |  |
| CNC(=O)c1cnc(-c2ccc3cc(C#N)cnn23)cc1N[C@@H]1CCC[C@@H](C(=O)NC)C1 [Example 464, 6-(3-cyanopyrrolo[1,2-b]pyridazin-7-yl)-N-methyl-4-(((1R,3R)-3-(methylcarbamoyl)cyclohexyl)amino) nicotinamide] |  |  | 1110 | 23 |  |
| CC(C)(O)[C@H](F)CNC(=O)c1cnc(-c2ccc3cc(C#N)cnn23)cc1N[C@H]1C[C@H](CNC(=O)CC(F)(F)F)C1 [Example 655, 6-(3-cyanopyrrolo[1,2-b]pyridazin-7-yl)-N-((R)-2-fluoro-3-hydroxy-3-methylbutyl)-4-(((1r,3R)-3-((3,3,3-trifluoropropan-amido)methyl)cyclobutyl)amino)nicotinamide] |  |  | 27 | < 1 |  |
| COC(=O)NCCCNc1cc(-c2ccc3cc(C#N)cnn23)ncc1C(=O)NC[C@@H](F)C(C)(C)O [Example 716, (R)-methyl (3-((2-(3-cyanopyrrolo[1,2-b]pyridazin-7-yl)-5-((2-fluoro-3-hydroxy-3-methylbutyl)carbamoyl)pyridin-4-yl)amino)propyl)carbamate] |  |  | 55 | < 1 |  |
